Assay results taken from the supplement of paper PMC4862054.

What follows are compounds tested on HCC1937 (assay: normalised response (% of control), CellTiter-Glo; higher = more viable cells (100 = DMSO, 0 = benzethonium chloride kill control)). Conditions: incubation time: 72 h.
Summary of the method: (§1)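 The table gives the normalised signal for a single concentration in each entry. Breast cancer cell lines were seeded (20 µl suspension) into 384-well plates holding compound at 5 concentrations in 10-fold steps over a compound-specific 10,000-fold range and incubated 72 h, then read for CellTox Green fluorescence (485/520 nm) and CellTiter-Glo luminescence. Normalisation on each plate used 0.1 % DMSO (100) and a positive kill control (0).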

Compound	normalised response
CCCCC(=O)OCC(=O)[C@]1(O)Cc2c(O)c3c(c(O)c2[C@@H](O[C@H]2C[C@H](NC(=O)C(F)(F)F)[C@H](O)[C@H](C)O2)C1)C(=O)c1c(OC)cccc1C3=O [Valrubicin] (500 nM)	77.5%
CC1=C(/C=C/C(C)=C/C=C/C(C)=C/C(=O)O)C(C)(C)CCC1 [Tretinoin] (1000 nM)	97.7%

Each compound was assayed on HDQ-P1 in the same assay as above. Conditions: incubation time: 72 h.
Summary of the method: as §1

Compound	normalised response
COc1cc([C@@H]2c3cc4c(cc3[C@@H](O[C@@H]3O[C@@H]5CO[C@@H](c6cccs6)O[C@H]5[C@H](O)[C@H]3O)[C@H]3COC(=O)[C@H]23)OCO4)cc(OC)c1O [Teniposide] (1000 nM)	84.1%
CC(=O)Nc1cccc(-n2c(=O)n(C3CC3)c(=O)c3c(Nc4ccc(I)cc4F)n(C)c(=O)c(C)c32)c1 [Trametinib] (25 nM)	61.2%
N#Cc1ccc(C(c2ccc(C#N)cc2)n2cncn2)cc1 [Letrozole] (1000 nM)	102%
CCCS(=O)(=O)Nc1ccc(F)c(C(=O)c2c[nH]c3ncc(-c4ccc(Cl)cc4)cc23)c1F [Vemurafenib] (1000 nM)	94.8%
O=C(/C=C/c1cccnc1)NCCCCC1CCN(C(=O)c2ccccc2)CC1 [Daporinad] (100 nM)	19.1%
CCCCC(=O)OCC(=O)[C@]1(O)Cc2c(O)c3c(c(O)c2[C@@H](O[C@H]2C[C@H](NC(=O)C(F)(F)F)[C@H](O)[C@H](C)O2)C1)C(=O)c1c(OC)cccc1C3=O [Valrubicin] (500 nM)	81.7%
CC1=C(/C=C/C(C)=C/C=C/C(C)=C/C(=O)O)C(C)(C)CCC1 [Tretinoin] (1000 nM)	102%

These compounds were tested on Hs578T in the same assay as above. Conditions: incubation time: 72 h.
Summary of the method: as §1

Compound	normalised response
COc1cc([C@@H]2c3cc4c(cc3[C@@H](O[C@@H]3O[C@@H]5CO[C@@H](c6cccs6)O[C@H]5[C@H](O)[C@H]3O)[C@H]3COC(=O)[C@H]23)OCO4)cc(OC)c1O [Teniposide] (1000 nM)	76.3%
CC(=O)Nc1cccc(-n2c(=O)n(C3CC3)c(=O)c3c(Nc4ccc(I)cc4F)n(C)c(=O)c(C)c32)c1 [Trametinib] (25 nM)	83.2%
N#Cc1ccc(C(c2ccc(C#N)cc2)n2cncn2)cc1 [Letrozole] (1000 nM)	97.1%
CCCS(=O)(=O)Nc1ccc(F)c(C(=O)c2c[nH]c3ncc(-c4ccc(Cl)cc4)cc23)c1F [Vemurafenib] (1000 nM)	103%
O=C(/C=C/c1cccnc1)NCCCCC1CCN(C(=O)c2ccccc2)CC1 [Daporinad] (100 nM)	8.08%
CCCCC(=O)OCC(=O)[C@]1(O)Cc2c(O)c3c(c(O)c2[C@@H](O[C@H]2C[C@H](NC(=O)C(F)(F)F)[C@H](O)[C@H](C)O2)C1)C(=O)c1c(OC)cccc1C3=O [Valrubicin] (500 nM)	88.6%
CC1=C(/C=C/C(C)=C/C=C/C(C)=C/C(=O)O)C(C)(C)CCC1 [Tretinoin] (1000 nM)	90.7%

Each compound was assayed on MCF-10A in the same assay as above. Conditions: incubation time: 72 h.
Summary of the method: as §1

Compound	normalised response
COc1cc([C@@H]2c3cc4c(cc3[C@@H](O[C@@H]3O[C@@H]5CO[C@@H](c6cccs6)O[C@H]5[C@H](O)[C@H]3O)[C@H]3COC(=O)[C@H]23)OCO4)cc(OC)c1O [Teniposide] (1000 nM)	82.8%
CC(=O)Nc1cccc(-n2c(=O)n(C3CC3)c(=O)c3c(Nc4ccc(I)cc4F)n(C)c(=O)c(C)c32)c1 [Trametinib] (25 nM)	35.7%
N#Cc1ccc(C(c2ccc(C#N)cc2)n2cncn2)cc1 [Letrozole] (1000 nM)	101%
CCCS(=O)(=O)Nc1ccc(F)c(C(=O)c2c[nH]c3ncc(-c4ccc(Cl)cc4)cc23)c1F [Vemurafenib] (1000 nM)	101%
O=C(/C=C/c1cccnc1)NCCCCC1CCN(C(=O)c2ccccc2)CC1 [Daporinad] (100 nM)	11.1%
CCCCC(=O)OCC(=O)[C@]1(O)Cc2c(O)c3c(c(O)c2[C@@H](O[C@H]2C[C@H](NC(=O)C(F)(F)F)[C@H](O)[C@H](C)O2)C1)C(=O)c1c(OC)cccc1C3=O [Valrubicin] (500 nM)	75.6%
CC1=C(/C=C/C(C)=C/C=C/C(C)=C/C(=O)O)C(C)(C)CCC1 [Tretinoin] (1000 nM)	82%

The compounds below were run on MDA-MB-231 in the same assay as above. Conditions: incubation time: 72 h.
Summary of the method: as §1

Compound	normalised response
COc1cc([C@@H]2c3cc4c(cc3[C@@H](O[C@@H]3O[C@@H]5CO[C@@H](c6cccs6)O[C@H]5[C@H](O)[C@H]3O)[C@H]3COC(=O)[C@H]23)OCO4)cc(OC)c1O [Teniposide] (1000 nM)	66%
CC(=O)Nc1cccc(-n2c(=O)n(C3CC3)c(=O)c3c(Nc4ccc(I)cc4F)n(C)c(=O)c(C)c32)c1 [Trametinib] (25 nM)	72.1%
N#Cc1ccc(C(c2ccc(C#N)cc2)n2cncn2)cc1 [Letrozole] (1000 nM)	96.5%
CCCS(=O)(=O)Nc1ccc(F)c(C(=O)c2c[nH]c3ncc(-c4ccc(Cl)cc4)cc23)c1F [Vemurafenib] (1000 nM)	94.3%
O=C(/C=C/c1cccnc1)NCCCCC1CCN(C(=O)c2ccccc2)CC1 [Daporinad] (100 nM)	25.8%
CCCCC(=O)OCC(=O)[C@]1(O)Cc2c(O)c3c(c(O)c2[C@@H](O[C@H]2C[C@H](NC(=O)C(F)(F)F)[C@H](O)[C@H](C)O2)C1)C(=O)c1c(OC)cccc1C3=O [Valrubicin] (500 nM)	85.4%
CC1=C(/C=C/C(C)=C/C=C/C(C)=C/C(=O)O)C(C)(C)CCC1 [Tretinoin] (1000 nM)	96.8%

Each compound was assayed on MDA-MB-436 in the same assay as above. Conditions: incubation time: 72 h.
Summary of the method: as §1

Compound	normalised response
COc1cc([C@@H]2c3cc4c(cc3[C@@H](O[C@@H]3O[C@@H]5CO[C@@H](c6cccs6)O[C@H]5[C@H](O)[C@H]3O)[C@H]3COC(=O)[C@H]23)OCO4)cc(OC)c1O [Teniposide] (1000 nM)	36.6%
CC(=O)Nc1cccc(-n2c(=O)n(C3CC3)c(=O)c3c(Nc4ccc(I)cc4F)n(C)c(=O)c(C)c32)c1 [Trametinib] (25 nM)	91.2%
N#Cc1ccc(C(c2ccc(C#N)cc2)n2cncn2)cc1 [Letrozole] (1000 nM)	105%
CCCS(=O)(=O)Nc1ccc(F)c(C(=O)c2c[nH]c3ncc(-c4ccc(Cl)cc4)cc23)c1F [Vemurafenib] (1000 nM)	94.2%
O=C(/C=C/c1cccnc1)NCCCCC1CCN(C(=O)c2ccccc2)CC1 [Daporinad] (100 nM)	54%
CCCCC(=O)OCC(=O)[C@]1(O)Cc2c(O)c3c(c(O)c2[C@@H](O[C@H]2C[C@H](NC(=O)C(F)(F)F)[C@H](O)[C@H](C)O2)C1)C(=O)c1c(OC)cccc1C3=O [Valrubicin] (500 nM)	57.5%
CC1=C(/C=C/C(C)=C/C=C/C(C)=C/C(=O)O)C(C)(C)CCC1 [Tretinoin] (1000 nM)	95.6%

The compounds below were run on MDA-MB-453 in the same assay as above. Conditions: incubation time: 72 h.
Summary of the method: as §1

Compound	normalised response
COc1cc([C@@H]2c3cc4c(cc3[C@@H](O[C@@H]3O[C@@H]5CO[C@@H](c6cccs6)O[C@H]5[C@H](O)[C@H]3O)[C@H]3COC(=O)[C@H]23)OCO4)cc(OC)c1O [Teniposide] (1000 nM)	160%
CC(=O)Nc1cccc(-n2c(=O)n(C3CC3)c(=O)c3c(Nc4ccc(I)cc4F)n(C)c(=O)c(C)c32)c1 [Trametinib] (25 nM)	111%
N#Cc1ccc(C(c2ccc(C#N)cc2)n2cncn2)cc1 [Letrozole] (1000 nM)	99.3%
CCCS(=O)(=O)Nc1ccc(F)c(C(=O)c2c[nH]c3ncc(-c4ccc(Cl)cc4)cc23)c1F [Vemurafenib] (1000 nM)	90.7%
O=C(/C=C/c1cccnc1)NCCCCC1CCN(C(=O)c2ccccc2)CC1 [Daporinad] (100 nM)	14.3%
CCCCC(=O)OCC(=O)[C@]1(O)Cc2c(O)c3c(c(O)c2[C@@H](O[C@H]2C[C@H](NC(=O)C(F)(F)F)[C@H](O)[C@H](C)O2)C1)C(=O)c1c(OC)cccc1C3=O [Valrubicin] (500 nM)	120%
CC1=C(/C=C/C(C)=C/C=C/C(C)=C/C(=O)O)C(C)(C)CCC1 [Tretinoin] (1000 nM)	97.6%

Each compound was assayed on MDA-MB-468 in the same assay as above. Conditions: incubation time: 72 h.
Summary of the method: as §1

Compound	normalised response
COc1cc([C@@H]2c3cc4c(cc3[C@@H](O[C@@H]3O[C@@H]5CO[C@@H](c6cccs6)O[C@H]5[C@H](O)[C@H]3O)[C@H]3COC(=O)[C@H]23)OCO4)cc(OC)c1O [Teniposide] (1000 nM)	41.9%
CC(=O)Nc1cccc(-n2c(=O)n(C3CC3)c(=O)c3c(Nc4ccc(I)cc4F)n(C)c(=O)c(C)c32)c1 [Trametinib] (25 nM)	88.7%
N#Cc1ccc(C(c2ccc(C#N)cc2)n2cncn2)cc1 [Letrozole] (1000 nM)	103%
CCCS(=O)(=O)Nc1ccc(F)c(C(=O)c2c[nH]c3ncc(-c4ccc(Cl)cc4)cc23)c1F [Vemurafenib] (1000 nM)	86.9%
O=C(/C=C/c1cccnc1)NCCCCC1CCN(C(=O)c2ccccc2)CC1 [Daporinad] (100 nM)	0.85%
CCCCC(=O)OCC(=O)[C@]1(O)Cc2c(O)c3c(c(O)c2[C@@H](O[C@H]2C[C@H](NC(=O)C(F)(F)F)[C@H](O)[C@H](C)O2)C1)C(=O)c1c(OC)cccc1C3=O [Valrubicin] (500 nM)	47.1%
CC1=C(/C=C/C(C)=C/C=C/C(C)=C/C(=O)O)C(C)(C)CCC1 [Tretinoin] (1000 nM)	84.6%

These compounds were tested on MFM-223 in the same assay as above. Conditions: incubation time: 72 h.
Summary of the method: as §1

Compound	normalised response
COc1cc([C@@H]2c3cc4c(cc3[C@@H](O[C@@H]3O[C@@H]5CO[C@@H](c6cccs6)O[C@H]5[C@H](O)[C@H]3O)[C@H]3COC(=O)[C@H]23)OCO4)cc(OC)c1O [Teniposide] (1000 nM)	82.4%
CC(=O)Nc1cccc(-n2c(=O)n(C3CC3)c(=O)c3c(Nc4ccc(I)cc4F)n(C)c(=O)c(C)c32)c1 [Trametinib] (25 nM)	94.6%
N#Cc1ccc(C(c2ccc(C#N)cc2)n2cncn2)cc1 [Letrozole] (1000 nM)	100%
CCCS(=O)(=O)Nc1ccc(F)c(C(=O)c2c[nH]c3ncc(-c4ccc(Cl)cc4)cc23)c1F [Vemurafenib] (1000 nM)	86.4%
O=C(/C=C/c1cccnc1)NCCCCC1CCN(C(=O)c2ccccc2)CC1 [Daporinad] (100 nM)	4.38%
CCCCC(=O)OCC(=O)[C@]1(O)Cc2c(O)c3c(c(O)c2[C@@H](O[C@H]2C[C@H](NC(=O)C(F)(F)F)[C@H](O)[C@H](C)O2)C1)C(=O)c1c(OC)cccc1C3=O [Valrubicin] (500 nM)	108%
CC1=C(/C=C/C(C)=C/C=C/C(C)=C/C(=O)O)C(C)(C)CCC1 [Tretinoin] (1000 nM)	93.5%

What follows are compounds tested on SK-BR-3 in the same assay as above. Conditions: incubation time: 72 h.
Summary of the method: as §1

Compound	normalised response
COc1cc([C@@H]2c3cc4c(cc3[C@@H](O[C@@H]3O[C@@H]5CO[C@@H](c6cccs6)O[C@H]5[C@H](O)[C@H]3O)[C@H]3COC(=O)[C@H]23)OCO4)cc(OC)c1O [Teniposide] (1000 nM)	19.1%
CC(=O)Nc1cccc(-n2c(=O)n(C3CC3)c(=O)c3c(Nc4ccc(I)cc4F)n(C)c(=O)c(C)c32)c1 [Trametinib] (25 nM)	102%
N#Cc1ccc(C(c2ccc(C#N)cc2)n2cncn2)cc1 [Letrozole] (1000 nM)	99.5%
CCCS(=O)(=O)Nc1ccc(F)c(C(=O)c2c[nH]c3ncc(-c4ccc(Cl)cc4)cc23)c1F [Vemurafenib] (1000 nM)	79%
O=C(/C=C/c1cccnc1)NCCCCC1CCN(C(=O)c2ccccc2)CC1 [Daporinad] (100 nM)	107%
CCCCC(=O)OCC(=O)[C@]1(O)Cc2c(O)c3c(c(O)c2[C@@H](O[C@H]2C[C@H](NC(=O)C(F)(F)F)[C@H](O)[C@H](C)O2)C1)C(=O)c1c(OC)cccc1C3=O [Valrubicin] (500 nM)	41%
CC1=C(/C=C/C(C)=C/C=C/C(C)=C/C(=O)O)C(C)(C)CCC1 [Tretinoin] (1000 nM)	70.7%
